Measured values taken from patent US8802597B2, “Herbicidal pyrimidines” (E I du Pont de Nemours and Company, priority 2003, dated 2014).

What was measured:
Assay type in all cases: in vivo
[1] = tested on: velvetleaf (Abutilon theophrasti); test: Test A pre/postemergence
Procedure, shortened: (§1)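 Ratings: 0 = no effect, 100 = complete control, assessed visually about ten days post-treatment in a greenhouse. Applications: soil-directed preemergence spray and postemergence spray on 1- to 2-leaf plants, both using a surfactant-containing non-phytotoxic solvent formulation.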

[2] = tested on: giant foxtail (Setaria faberi); test: Test A pre/postemergence
Procedure, shortened: as §1

[3] = tested on: morningglory (Ipomoea spp.); test: Test A pre/postemergence
Procedure, shortened: as §1

[4] = tested on: redroot pigweed (Amaranthus retroflexus); test: Test A pre/postemergence
Procedure, shortened: as §1

[5] = tested on: crabgrass (Digitaria sanguinalis); test: Test A pre/postemergence
Procedure, shortened: as §1

[6] = tested on: barnyardgrass (Echinochloa crus-galli); test: Test A pre/postemergence
Procedure, shortened: as §1

[7] = tested on: soybean (Glycine max); test: Test C pre/postemergence; details: Postemergence; for Soybean plant response rating: 125 g ai/ha, scale 0 to 100 (0 no effect, 100 complete control)
Procedure, shortened: (§2)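 Greenhouse herbicide screen, visual readout. Compound in solvent/surfactant applied preemergence at planting or postemergence to 1- to 4-leaf plants; assessed at 12–14 days on a 0–100 control scale.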

[8] = tested on: lambsquarters (Chenopodium album); test: Test C pre/postemergence; details: Postemergence; for Lambsquarters plant response rating: 125 g ai/ha, scale 0 to 100 (0 no effect, 100 complete control)
Procedure, shortened: as §2

[9] = tested on: bermudagrass (Cynodon dactylon); test: Test C pre/postemergence; details: Postemergence; for Bermudagrass plant response rating: scale 0 to 100 (0 no effect, 100 complete control)
Procedure, shortened: as §2

[10] = tested on: johnsongrass (Sorghum halepense); test: Test C pre/postemergence; details: Postemergence; for Johnsongrass plant response rating: 125 g ai/ha, scale 0 to 100 (0 no effect, 100 complete control)
Procedure, shortened: as §2

[11] = tested on: chickweed (Stellaria media); test: Test C postemergence; details: for Chickweed plant response rating: 125 g ai/ha, scale 0 to 100 (0 no effect, 100 complete control)
Procedure, shortened: as §2

[12] = Postemergence, 125 g ai/ha, 0 to 100 scale (0 no effect, 100 complete control)
[13] = Postemergence, 500 g ai/ha, 0 to 100 scale (0 no effect, 100 complete control)
[14] = Preemergence, 125 g ai/ha, 0 to 100 scale where 0 is no effect and 100 is complete control, approximately ten days
[15] = Preemergence, 500 g ai/ha, 0 to 100 scale where 0 is no effect and 100 is complete control, approximately ten days

COC(=O)c1nc(-c2ccc(Cl)cc2)nc(N)c1Br [Compound 83]
50: Plant response rating, Pigweed [4, 15]
20: Plant response rating, Pigweed [4, 14] | Bermudagrass plant response rating ([9]; 62 g ai/ha)
30: Plant response rating, Velvetleaf [1, 15] | Chickweed plant response rating [11]
85: Plant response rating, Pigweed [4, 13] | Plant response rating (scale of 0 to 100), Soybean ([7]; 16 g ai/ha)
90: Plant response rating, Velvetleaf [1, 12] | Plant response rating, Velvetleaf [1, 13] | Plant response rating (scale of 0 to 100), Soybean ([7]; 31 g ai/ha) | Plant response rating (scale of 0 to 100), Lambsquarters ([8]; 16 g ai/ha)
15: Plant response rating, Velvetleaf [1, 14]
95: Plant response rating (scale of 0 to 100), Lambsquarters ([8]; 31 g ai/ha) | Plant response rating (scale of 0 to 100), Lambsquarters ([8]; 62 g ai/ha)
0: Plant response rating, Foxtail, Giant [2, 12] | Plant response rating, Foxtail, Giant [2, 14] | Plant response rating, Foxtail, Giant [2, 15] | Plant response rating, Morningglory [3, 14] | Plant response rating, Crabgrass [5, 12] | Plant response rating, Crabgrass [5, 14] | Plant response rating, Barnyardgrass [6, 12] | Plant response rating, Barnyardgrass [6, 14] | Plant response rating (scale of 0 to 100), Bermudagrass ([9]; 16 g ai/ha) | Plant response rating (scale of 0 to 100), Chickweed ([11]; 16 g ai/ha) | Plant response rating (scale of 0 to 100), Chickweed ([11]; 31 g ai/ha)
100: Plant response rating (scale of 0 to 100), Soybean ([7]; 62 g ai/ha) | Soybean plant response rating [7] | Lambsquarters plant response rating [8]
70: Plant response rating, Pigweed [4, 12] | Johnsongrass plant response rating [10]
10: Plant response rating, Foxtail, Giant [2, 13] | Plant response rating, Morningglory [3, 15] | Plant response rating, Crabgrass [5, 13] | Plant response rating, Barnyardgrass [6, 13] | Plant response rating (scale of 0 to 100), Johnsongrass ([10]; 16 g ai/ha) | Plant response rating (scale of 0 to 100), Chickweed ([11]; 62 g ai/ha)
75: Plant response rating, Morningglory [3, 13]
5: Plant response rating, Crabgrass [5, 15] | Plant response rating, Barnyardgrass [6, 15] | Plant response rating (scale of 0 to 100), Bermudagrass ([9]; 31 g ai/ha)
55: Plant response rating, Morningglory [3, 12] | Bermudagrass plant response rating ([9]; 125 g ai/ha) | Plant response rating (scale of 0 to 100), Johnsongrass ([10]; 31 g ai/ha) | Plant response rating (scale of 0 to 100), Johnsongrass ([10]; 62 g ai/ha)

Nc1nc(-c2ccc(Cl)cc2)nc(C(=O)O)c1Br [Compound 88]
95: Plant response rating, Velvetleaf [1, 13] | Plant response rating, Pigweed [4, 13] | Plant response rating (scale of 0 to 100), Lambsquarters ([8]; 62 g ai/ha) | Lambsquarters plant response rating [8]
30: Plant response rating (scale of 0 to 100), Johnsongrass ([10]; 31 g ai/ha)
85: Plant response rating, Morningglory [3, 13] | Plant response rating, Crabgrass [5, 13] | Plant response rating, Crabgrass [5, 15] | Plant response rating, Barnyardgrass [6, 13] | Plant response rating, Johnsongrass ([10]; 250 g ai/ha, scale 0 to 100)
80: Plant response rating, Foxtail, Giant [2, 12] | Plant response rating, Pigweed [4, 14] | Plant response rating, Bermudagrass ([9]; 250 g ai/ha, scale 0 to 100) | Plant response rating (scale of 0 to 100), Chickweed ([11]; 31 g ai/ha)
70: Plant response rating, Velvetleaf [1, 15] | Bermudagrass plant response rating ([9]; 62 g ai/ha) | Bermudagrass plant response rating ([9]; 125 g ai/ha)
75: Johnsongrass plant response rating [10]
35: Plant response rating, Crabgrass [5, 14]
100: Plant response rating, Pigweed [4, 15] | Plant response rating (scale of 0 to 100), Soybean ([7]; 31 g ai/ha) | Plant response rating (scale of 0 to 100), Soybean ([7]; 62 g ai/ha) | Soybean plant response rating [7] | Plant response rating, Soybean ([7]; 250 g ai/ha, scale 0 to 100) | Plant response rating, Lambsquarters ([8]; 250 g ai/ha, scale 0 to 100) | Plant response rating (scale of 0 to 100), Chickweed ([11]; 62 g ai/ha) | Chickweed plant response rating [11] | Plant response rating, Chickweed ([11]; 250 g ai/ha, scale 0 to 100)
55: Plant response rating, Barnyardgrass [6, 15]
45: Plant response rating (scale of 0 to 100), Johnsongrass ([10]; 62 g ai/ha)
10: Plant response rating, Velvetleaf [1, 14] | Plant response rating, Foxtail, Giant [2, 14] | Plant response rating, Morningglory [3, 14] | Plant response rating, Barnyardgrass [6, 14]
50: Plant response rating, Foxtail, Giant [2, 15] | Plant response rating, Barnyardgrass [6, 12] | Plant response rating (scale of 0 to 100), Bermudagrass ([9]; 31 g ai/ha)
60: Plant response rating, Morningglory [3, 12] | Plant response rating, Crabgrass [5, 12]
90: Plant response rating, Velvetleaf [1, 12] | Plant response rating, Foxtail, Giant [2, 13] | Plant response rating, Morningglory [3, 15] | Plant response rating, Pigweed [4, 12] | Plant response rating (scale of 0 to 100), Lambsquarters ([8]; 31 g ai/ha)
